Results published in publication PMC12562681, “Targeting a Tau Kinase Cdk5, Cyclin-Dependent Kinase: A Blood-Based Diagnostic Marker and Therapeutic Earmark for Alzheimer’s Disease” (Biomolecules, 2025).
Read-outs that look alike come from different tables or passages of the source. Peptide text beside a SMILES is read from it.

How the values were obtained:
Cdk5 [1] = experiment: Cdk5 expression by Western blot in Aβ25–35-treated SH-SY5Y cells; format: cell-based; conditions: aggregated Aβ25–35, SH-SY5Y
Experimental: (§1) The concentration of total protein in cell lysate was measured using the bicinchoninic acid (BCA) assay. Samples were prepared using the 6× protein loading dye and incubated at 95 °C for 15 min. Equal concentrations of cell lysate (50 µg/lane) were fractionated by 10% SDS-PAGE and transferred to PVDF membrane. The membrane was blocked with 5% NFM for 2 h and then probed with their respective primary antibodies: Cdk5 (1:400) and Mcl1 (1:1000), mouse IgG anti-β-amyloid (1:200) (Sc28365), mouse IgG anti-Tau (Tau-46) (1:200) (Santa Cruz Biotechnology Inc., Dallas, TX, USA, Sc32274), rabbit IgG anti-phospho-Tau (Thr181) (1:350) (Cell Signaling Technology, Inc., Danvers, MA, USA, DAF4G), and rabbit antibody IgG anti-β-actin (1:1000) (Cell Signaling Technology, Inc., Danvers, MA, USA). The membranes were incubated with the secondary anti-rabbit and anti-mouse (cat. no. Sc2004, Sc2005) HRP-conjugated antibody (1:4000) at room temperature for 1 h.

Cdk5 mRNA = Cdk5 mRNA by RT-PCR in Aβ25–35-treated SH-SY5Y cells; format: cell-based; conditions: aggregated Aβ25–35 alone; δ-δ CT, GAPDH; triplicate
Excerpt: [36]; Mcl1 forward primer-[NT] and reverse primer-[…] forward primer-[NT] and reverse primer-[NT].

Aβ-amyloid = Aβ-amyloid expression by Western blot in Aβ25–35-treated SH-SY5Y cells; format: cell-based; conditions: aggregated Aβ25–35 alone
Experimental: as §1

phospho-Tau (Thr181) = experiment: p-Tau expression by Western blot in Aβ25–35-treated SH-SY5Y cells; format: cell-based; conditions: aggregated Aβ25–35 alone
Experimental: as §1

Tau = Tau expression by Western blot in Aβ25–35-treated SH-SY5Y cells; format: cell-based; conditions: aggregated Aβ25–35 alone
Experimental: as §1

SH-SY5Y cells = format: cell-based; conditions: triplicate
Excerpt: (§2) SH-SY5Y and HEK 293 cells were purchased from NCCS, Pune, India, and were maintained in Ham’s F12 (cat. no. 21700075) and Dulbecco’s Modified Eagle Medium (DMEM, cat. no. 12800017) nutrient media (Gibco, Waltham, MA, USA), respectively, supplemented with 10% (v/v) Fetal Bovine Serum (FBS, cat. no. 10270106) and 1% antibiotic–antimycotic solution (cat. no. CC4003010L, CELL clone, New Delhi, India). The SH-SY5Y cells used in the experiment were of passage number 42–46. Cells were maintained as a monolayer culture at 37 °C with 5% CO2 and 95% relative humidity. Potential contamination in all cells was assessed through STR profiling (DNA Forensic Laboratory Private Limited, New Delhi, India).
Aggregated Aβ25–35 was employed to induce neurotoxicity in SH-SY5Y cells due to its ability to replicate the physiological and biological characteristics of Aβ-amyloid, known to mediate neurotoxic effects and contribute to neuronal cell damage. The effect of peptide on neurotoxicity caused by aggregated Aβ25–35 was assessed via MTT assay. Cells were seeded in 96-well plates at a density of 1 × 10^4 cells per 100 μL per well. Cells were cultured for 24 h and then treated with 20 µM retinoic acid for differentiation. The culture medium was routinely replaced every alternate day for a period of seven days. A stock solution of 20 mM Aβ25–35 was prepared by dissolving 2.12 mg of synthesized Aβ25–35 in 100 µL of 1× PBS and allowed to aggregate at 37 °C for 7 days. Cells were treated with 20 µM aggregated Aβ25–35, along with different concentrations of the peptide YCWS (2 µM, 5 µM, 10 µM, 15 µM, and 20 µM) for 24 h, 48 h, and 72 h. After completion of the treatment duration, cell viability was determined using the MTT assay as described above.

HEK-293 cells = experiment: Cell cytotoxicity assay in HEK-293 cells (MTT); format: cell-based; conditions: 24 h, 48 h and 72 h, up to 50 µM, triplicate
Excerpt: as §2
The peptide’s effect was initially assessed using the normal HEK 293 cell line, and the cell viability was determined by the 3-(4,5-dimethylthiazol-2-yl)-2,5-diphenyltetrazolium bromide (MTT) (cat. no. T0793) reduction assay. Cells were seeded in 96-well plates at a density of 5 × 10^3 cells per 100 μL per well. Cells were cultured for 24 h and then treated with different concentrations of peptide, i.e., 10 µM, 20 µM, and 50 µM, for different time intervals (24 h, 48 h, and 72 h). At the end of treatment, 10 μL MTT (5 mg/mL) was added in each well and incubated for 4 h at 37 °C. […] The absorbance value at 572 nm was measured using a microplate reader. […]

SHSY-5Y cells = experiment: Cytotoxicity of peptide in SHSY-5Y cells; format: cell-based; conditions: discussion statement, concentration and time not given
Cdk5 [2] = biological target: T1, Cdk5 (Homo sapiens, UniProt Q00535); experiment: Binding study of peptide by SPR (Ni-NTA chip, immobilized recombinant Cdk5); conditions: recombinant Cdk5 on Ni-NTA sensor chip, peptide 0.4, 0.6 and 1 µM, BIA evaluation 3.0, read-out: dissociation constant (KD)
T1 construct: host or cells: E. coli BL21
T1 sequence (Q00535 whole entry): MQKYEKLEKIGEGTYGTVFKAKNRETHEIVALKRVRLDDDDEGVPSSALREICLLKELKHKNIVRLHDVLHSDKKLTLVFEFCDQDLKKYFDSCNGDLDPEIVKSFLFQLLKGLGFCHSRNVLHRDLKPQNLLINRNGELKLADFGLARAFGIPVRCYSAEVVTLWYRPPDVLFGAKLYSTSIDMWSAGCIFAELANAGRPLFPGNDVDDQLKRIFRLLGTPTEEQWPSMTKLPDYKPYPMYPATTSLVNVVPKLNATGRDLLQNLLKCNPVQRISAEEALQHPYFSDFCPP
Experimental: Different concentrations of purified recombinant human Cdk5 and Mcl1 proteins were passed over the respective flow cells, and corresponding response units (RU) were noted. The standard curve was prepared by plotting different concentrations of pure proteins versus the corresponding RU (Figure S1). Serum samples were diluted (1:79) with HBS-EP buffer and passed over the respective flow cell. The RU for each sample was noted, and the concentration of Cdk5 and Mcl1 in the serum sample was derived from their respective standard curves.
The recombinant Cdk5 protein was immobilized on the Ni-NTA sensor chip by passing NiCl2 solution and the protein. Different concentrations of peptide YCWS (0.4 µM, 0.6 µM, and 1 µM) were passed over it, and changes in RU were noted. The association constant (KA) and dissociation constant (KD) values were calculated using the BIA evaluation 3.0 software.

| SMILES | Cdk5 protein expression (Cdk5 [1]) | Cdk5 mRNA expression, fold vs control group (Cdk5 mRNA) [fold] | Aβ-amyloid expression (Aβ-amyloid) | p-Tau expression (phospho-Tau (Thr181)) | tau expression (Tau) | cell viability, rescue (SH-SY5Y cells; YCWS 2 µM + 20 µM aggregated Aβ25–35, MTT, time of value not stated (24, 48, 72 h tested)) [%] | cell viability, rescue (SH-SY5Y cells; YCWS 5 µM + 20 µM aggregated Aβ25–35, MTT, time of value not stated (24, 48, 72 h tested)) [%] | cell viability, rescue (SH-SY5Y cells; YCWS 10 µM + 20 µM aggregated Aβ25–35, MTT, time of value not stated (24, 48, 72 h tested)) [%] | cell viability, rescue (SH-SY5Y cells; YCWS 15 µM + 20 µM aggregated Aβ25–35, MTT, time of value not stated (24, 48, 72 h tested)) [%] | cell viability, rescue (SH-SY5Y cells; YCWS 20 µM ("up to") + 20 µM aggregated Aβ25–35, MTT, p < 0.001 vs Aβ (Mann–Whitney), time of value not stated) [%] | cytotoxicity, HEK-293 cells (HEK-293 cells) | cytotoxicity, SHSY-5Y cells (SHSY-5Y cells) | Kd (Cdk5 [2]) [nM] |
| --- | --- | --- | --- | --- | --- | --- | --- | --- | --- | --- | --- | --- | --- |
| CC[C@H](C)[C@H](NC(=O)[C@H](C)NC(=O)CNC(=O)[C@H](CCCCN)NC(=O)[C@H](CC(N)=O)NC(=O)[C@H](CO)NC(=O)CN)C(=O)N[C@H](C(=O)NCC(=O)N[C@@H](CC(C)C)C(=O)N[C@@H](CCSC)C(=O)O)[C@@H](C)CC [Aβ25–35] (H-GSNKGAIIGLM-OH; N-terminus and C-terminus assumed) | increased the expression of Cdk5 | 1.85 | increased | increased | increased |  |  |  |  |  |  |  |  |
| N[C@@H](Cc1ccc(O)cc1)C(=O)N[C@@H](CS)C(=O)N[C@@H](Cc1c[nH]c2ccccc12)C(=O)N[C@@H](CO)C(=O)O [YCWS] (H-YCWS-OH) |  |  |  |  |  | 87.28 | 91.47 | 92.20 | 98.27 | 98.55 | nontoxic | non-toxic | 3.94 |
